Data reported in patent US6737383B1, “Herbicidal oxadiazolidines” (priority 1999, dated 2004).

Legend:
giant foxtail = experiment: Test B pre/postemergence giant foxtail; assay type: in vivo, Setaria faberii
Method in brief: (§1)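 Test chemicals in a non-phytotoxic solvent mixture with surfactant were sprayed preemergence onto planted seeds and postemergence onto plants 2 to 18 cm tall (1- to 4-leaf stage). After twelve to sixteen days in a greenhouse, injury was visually rated against untreated controls from 0 (no effect) to 10 (complete control).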

morningglory = experiment: Test B pre/postemergence morningglory; assay type: in vivo, Ipomoea hederacea
Method in brief: as §1

pigweed = experiment: Test B pre/postemergence pigweed; assay type: in vivo, Amaranthus retroflexus
Method in brief: as §1

[1] = Postemergence, Rate 62 g/ha, scale 0 to 10, 0 is no effect, 10 is complete control
[2] = Postemergence, Rate 125 g/ha, scale of 0 to 10 where 0 is no effect and 10 is complete control
[3] = Postemergence, Rate 250 g/ha, scale of 0 to 10, 0 is no effect, 10 is complete control
[4] = Preemergence, Rate 62 g/ha, scale of 0 to 10 where 0 is no effect and 10 is complete control
[5] = Preemergence, Rate 125 g/ha, scale of 0 to 10 where 0 is no effect and 10 is complete control
[6] = Preemergence, Rate 250 g/ha, scale 0 to 10 (0 no effect, 10 complete control)
[7] = Preemergence, Rate 500 g/ha, scale of 0 to 10 where 0 is no effect and 10 is complete control
[8] = Rate 500 g/ha, Postemergence, scale 0 to 10, 0 is no effect, 10 is complete control
[9] = Preemergence, Rate 250 g/ha, scale of 0 to 10 where 0 is no effect and 10 is complete control
[10] = Rate 62 g/ha, Postemergence, scale 0 to 10, 0 no effect, 10 complete control
[11] = Rate 125 g/ha, Postemergence, scale of 0 to 10 where 0 is no effect and 10 is complete control
[12] = Rate 250 g/ha, Postemergence, scale of 0 to 10 where 0 is no effect and 10 is complete control
[13] = Postemergence, Rate 250 g/ha, scale 0 to 10
[14] = Postemergence, Rate 500 g/ha, scale of 0 to 10 where 0 is no effect and 10 is complete control
[15] = Preemergence, Rate 250 g/ha, scale 0 to 10, 0 is no effect, 10 is complete control
[16] = Preemergence, Rate 500 g/ha, scale 0 to 10, 0 is no effect, 10 is complete control
[17] = Rate 125 g/ha, Postemergence, scale 0 to 10, 0 is no effect, 10 is complete control
[18] = Preemergence, Rate 125 g/ha, 0 is no effect, 10 is complete control
[19] = Preemergence, Rate 500 g/ha, scale 0 to 10 (0 no effect, 10 complete control)
[20] = Rate 62 g/ha, Postemergence, scale of 0 to 10 where 0 is no effect and 10 is complete control
[21] = Rate 250 g/ha, Postemergence, scale 0 to 10, 0 is no effect, 10 is complete control
[22] = Rate 500 g/ha, Postemergence, scale 0 to 10
[23] = Preemergence, Rate 62 g/ha, scale 0 to 10 (0 no effect, 10 complete control)
[24] = Postemergence, Rate 250 g/ha, scale 0 to 10, 0 is no effect, 10 is complete control

CC[C@@H](C)n1c(=O)on(C(=O)N(c2ccc(F)cc2F)C(C)C)c1=O [Compound 667]
Plant response rating, Giant foxtail (giant foxtail; [1]): 5 | Giant foxtail plant response rating (giant foxtail; [2]): 9 | Giant foxtail plant response rating (giant foxtail; [3]): 9 | Giant foxtail plant response rating (giant foxtail; [4]): 10 | Giant foxtail plant response rating (giant foxtail; [5]): 10 | Plant response rating, Giant foxtail (giant foxtail; [6]): 10 | Plant response rating, Giant foxtail (giant foxtail; [7]): 10 | Giant foxtail plant response rating (giant foxtail; [8]): 9 | Plant response rating, Morningglory (morningglory; [1]): 2 | Morningglory plant response rating (morningglory; [2]): 2 | Morningglory plant response rating (morningglory; [3]): 4 | Morningglory plant response rating (morningglory; [4]): 0 | Morningglory plant response rating (morningglory; [5]): 1 | Plant response rating, Morningglory (morningglory; [6]): 3 | Plant response rating, Morningglory (morningglory; [7]): 6 | Morningglory plant response rating (morningglory; [8]): 6 | Plant response rating, Redroot pigweed (pigweed; [1]): 2 | Redroot pigweed plant response rating (pigweed; [2]): 5 | Redroot pigweed plant response rating (pigweed; [4]): 10 | Redroot pigweed plant response rating (pigweed; [5]): 10 | Plant response rating, Redroot pigweed (pigweed; [6]): 10 | Plant response rating, Redroot pigweed (pigweed; [7]): 10 | Redroot pigweed plant response rating (pigweed; [8]): 7

Cc1ccccc1-n1c(=O)on(C(=O)N(c2ccc3ccccc3c2)C(C)C)c1=O [Compound 306]
Giant foxtail plant response rating (giant foxtail; [4]): 2 | Giant foxtail plant response rating (0 to 10 scale) (giant foxtail; Preemergence, Rate 125 g/ha): 2 | Giant foxtail plant response rating (giant foxtail; [9]): 8 | Giant foxtail plant response rating (giant foxtail; [7]): 9 | Giant foxtail plant response rating (giant foxtail; [10]): 0 | Giant foxtail plant response rating (giant foxtail; [11]): 0 | Plant response rating, Giant foxtail (giant foxtail; [12]): 0 | Morningglory plant response rating (morningglory; [4]): 0 | Morningglory plant response rating (0 to 10 scale) (morningglory; Preemergence, Rate 125 g/ha): 0 | Morningglory plant response rating (morningglory; [9]): 0 | Morningglory plant response rating (morningglory; [7]): 0 | Morningglory plant response rating (morningglory; [10]): 2 | Morningglory plant response rating (morningglory; [11]): 2 | Redroot pigweed plant response rating (pigweed; [4]): 0 | Redroot pigweed plant response rating (0 to 10 scale) (pigweed; Preemergence, Rate 125 g/ha): 0 | Redroot pigweed plant response rating (pigweed; [9]): 0 | Redroot pigweed plant response rating (pigweed; [7]): 0 | Redroot pigweed plant response rating (pigweed; [10]): 0 | Redroot pigweed plant response rating (pigweed; [11]): 0 | Plant response rating, Redroot pigweed (pigweed; [12]): 0

Cc1nc(C)c(C(C)n2c(=O)on(C(=O)N(c3ccc(F)cc3F)C(C)C)c2=O)s1 (stereo not shown) [Compound 443]
Giant foxtail plant response rating (giant foxtail; [13]): 0 | Giant foxtail plant response rating (giant foxtail; [14]): 0 | Plant response rating, Giant foxtail (giant foxtail; [4]): 3 | Plant response rating, Giant foxtail (giant foxtail; [5]): 4 | Giant foxtail plant response rating (giant foxtail; [15]): 10 | Giant foxtail plant response rating (giant foxtail; [16]): 10 | Giant foxtail plant response rating (giant foxtail; [10]): 0 | Giant foxtail plant response rating (giant foxtail; [17]): 0 | Morningglory plant response rating (morningglory; [13]): 4 | Morningglory plant response rating (morningglory; [14]): 4 | Plant response rating, Morningglory (morningglory; [4]): 0 | Plant response rating, Morningglory (morningglory; [5]): 0 | Morningglory plant response rating (morningglory; [15]): 0 | Morningglory plant response rating (morningglory; [16]): 0 | Morningglory plant response rating (morningglory; [10]): 2 | Morningglory plant response rating (morningglory; [17]): 3 | Redroot pigweed plant response rating (pigweed; [13]): 0 | Redroot pigweed plant response rating (pigweed; [14]): 0 | Plant response rating, Redroot pigweed (pigweed; [4]): 0 | Plant response rating, Redroot pigweed (pigweed; [5]): 0 | Redroot pigweed plant response rating (pigweed; [15]): 0 | Redroot pigweed plant response rating (pigweed; [16]): 6 | Redroot pigweed plant response rating (pigweed; [10]): 0 | Redroot pigweed plant response rating (pigweed; [17]): 0

CC(C)N(C(=O)n1oc(=O)n(-c2nc(Cl)sc2Cl)c1=O)c1ccc(F)cc1 [Compound 160]
Giant foxtail plant response rating (giant foxtail; [2]): 0 | Giant foxtail plant response rating (giant foxtail; [4]): 0 | Giant foxtail plant response rating (0 to 10 scale) (giant foxtail; [18]): 0 | Giant foxtail plant response rating (giant foxtail; [15]): 0 | Giant foxtail plant response rating (giant foxtail; [19]): 0 | Giant foxtail plant response rating (giant foxtail; [20]): 0 | Plant response rating, Giant foxtail (giant foxtail; [21]): 0 | Giant foxtail plant response rating (giant foxtail; [22]): 0 | Morningglory plant response rating (morningglory; [2]): 0 | Morningglory plant response rating (morningglory; [4]): 0 | Morningglory plant response rating (0 to 10 scale) (morningglory; [18]): 0 | Morningglory plant response rating (morningglory; [15]): 0 | Morningglory plant response rating (morningglory; [19]): 0 | Morningglory plant response rating (morningglory; [20]): 0 | Plant response rating, Morningglory (morningglory; [21]): 0 | Morningglory plant response rating (morningglory; [22]): 0 | Redroot pigweed plant response rating (pigweed; [2]): 0 | Redroot pigweed plant response rating (pigweed; [4]): 0 | Redroot pigweed plant response rating (0 to 10 scale) (pigweed; [18]): 0 | Redroot pigweed plant response rating (pigweed; [15]): 0 | Redroot pigweed plant response rating (pigweed; [19]): 0 | Redroot pigweed plant response rating (pigweed; [20]): 0 | Plant response rating, Redroot pigweed (pigweed; [21]): 0 | Redroot pigweed plant response rating (pigweed; [22]): 0

CC(C)N(C(=O)n1oc(=O)n(CNC(=O)c2ccccc2)c1=O)c1ccc(F)cc1F [Compound 619]
Plant response rating, Giant foxtail (giant foxtail; [1]): 0 | Plant response rating, Giant foxtail (giant foxtail; [2]): 0 | Giant foxtail plant response rating (giant foxtail; [3]): 0 | Plant response rating, Giant foxtail (giant foxtail; [14]): 3 | Giant foxtail plant response rating (giant foxtail; [23]): 0 | Giant foxtail plant response rating (giant foxtail; [5]): 3 | Plant response rating, Giant foxtail (giant foxtail; [6]): 7 | Plant response rating, Giant foxtail (giant foxtail; [7]): 8 | Plant response rating, Morningglory (morningglory; [1]): 0 | Plant response rating, Morningglory (morningglory; [2]): 1 | Morningglory plant response rating (morningglory; [3]): 1 | Plant response rating, Morningglory (morningglory; [14]): 1 | Morningglory plant response rating (morningglory; [23]): 0 | Morningglory plant response rating (morningglory; [5]): 0 | Plant response rating, Morningglory (morningglory; [6]): 0 | Plant response rating, Morningglory (morningglory; [7]): 0 | Plant response rating, Redroot pigweed (pigweed; [1]): 0 | Plant response rating, Redroot pigweed (pigweed; [2]): 0 | Redroot pigweed plant response rating (pigweed; [3]): 1 | Redroot pigweed plant response rating (pigweed; [23]): 0 | Redroot pigweed plant response rating (pigweed; [5]): 0 | Plant response rating, Redroot pigweed (pigweed; [6]): 0 | Plant response rating, Redroot pigweed (pigweed; [7]): 0

CC(C)N(C(=O)n1oc(=O)n(CCCC(F)(F)F)c1=O)c1ccc(F)cc1 [Compound 398]
Plant response rating, Giant foxtail (giant foxtail; Postemergence, Rate 125 g/ha, scale 0 to 10, 0 is no effect, 10 is complete control): 8 | Plant response rating, Giant foxtail (giant foxtail; [24]): 9 | Giant foxtail plant response rating (giant foxtail; [14]): 9 | Plant response rating, Giant foxtail (giant foxtail; [23]): 10 | Plant response rating, Giant foxtail (giant foxtail; [5]): 10 | Giant foxtail plant response rating (giant foxtail; [15]): 10 | Giant foxtail plant response rating (giant foxtail; [16]): 10 | Giant foxtail plant response rating (giant foxtail; [20]): 3 | Plant response rating, Morningglory (morningglory; [24]): 3 | Morningglory plant response rating (morningglory; [14]): 8 | Plant response rating, Morningglory (morningglory; [23]): 0 | Plant response rating, Morningglory (morningglory; [5]): 0 | Morningglory plant response rating (morningglory; [15]): 0 | Morningglory plant response rating (morningglory; [16]): 0 | Morningglory plant response rating (morningglory; [20]): 2 | Plant response rating, Redroot pigweed (pigweed; [24]): 3 | Redroot pigweed plant response rating (pigweed; [14]): 5 | Plant response rating, Redroot pigweed (pigweed; [23]): 2 | Plant response rating, Redroot pigweed (pigweed; [5]): 5 | Redroot pigweed plant response rating (pigweed; [15]): 10 | Redroot pigweed plant response rating (pigweed; [16]): 10 | Redroot pigweed plant response rating (pigweed; [20]): 0
